{
  "source": "ChEMBL document CHEMBL5113432",
  "about": "“Discovery of novel indole and indoline derivatives against Candida albicans as potent antifungal agents” (Bioorg Med Chem Lett, 2022)",
  "key": {"Candida albicans [1]": {"system": "Candida albicans", "assay": "Antifungal activity against fluconazole-resistant Candida albicans ATCC10231FR assessed as inhibition of fungal growth by microdilution method", "assay_type": "functional, organism-based"}, "Candida albicans [2]": {"system": "Candida albicans", "assay": "Antifungal activity against clinical strain Candida albicans CA187 assessed as inhibition of fungal growth by microdilution method", "assay_type": "functional, organism-based"}, "Candida albicans [3]": {"system": "Candida albicans", "assay": "Antifungal activity against fluconazole-sensitive Candida albicans ATCC10231 assessed as inhibition of fungal growth by microdilution method", "assay_type": "functional, organism-based"}, "Candida albicans [4]": {"system": "Candida albicans", "assay": "Antifungal activity against clinical strain Candida albicans CA23 assessed as inhibition of fungal growth by microdilution method", "assay_type": "functional, organism-based"}, "Candida albicans [5]": {"system": "Candida albicans", "assay": "Antifungal activity against fluconazole-sensitive Candida albicans SC5314 assessed as inhibition of fungal growth by microdilution method", "assay_type": "functional, organism-based"}, "Candida albicans [6]": {"system": "Candida albicans", "assay": "Antifungal activity against clinical strain Candida albicans CA4574 assessed as inhibition of fungal growth by microdilution method", "assay_type": "functional, organism-based"}, "Candida albicans [7]": {"system": "Candida albicans", "assay": "Antifungal activity against fluconazole-resistant Candida albicans SC5314FR assessed as inhibition of fungal growth by microdilution method", "assay_type": "functional, organism-based"}, "Candida albicans [8]": {"system": "Candida albicans", "assay": "Antifungal activity against clinical strain Candida albicans CA808 assessed as inhibition of fungal growth by microdilution method", "assay_type": "functional, organism-based"}, "Candida albicans [9]": {"system": "Candida albicans", "assay": "Antifungal activity against Candida albicans assessed as downregulation of EFG1 by RT-PCR analysis", "assay_type": "functional, organism-based"}, "[10]": {"assay": "Cytotoxicity against human 16HBE14o- assessed as inhibition of cell growth incubated for 24 hrs", "assay_type": "toxicity, cell-based", "settings": "16HBE14o- cells"}, "Candida albicans [11]": {"system": "Candida albicans", "assay": "Antifungal activity against Candida albicans assessed as inhibition of biofilm formation at 18 to 72 ug/ml incubated for 24 hrs by crystal violet staining based method", "assay_type": "functional, organism-based", "settings": "dose 18-72 µg/ml"}, "Candida albicans [12]": {"system": "Candida albicans", "assay": "Antifungal activity against Candida albicans assessed as downregulation of ECE1 by RT-PCR analysis", "assay_type": "functional, organism-based"}, "Candida albicans [13]": {"system": "Candida albicans", "assay": "Antifungal activity against Candida albicans assessed as downregulation of HWP1 by RT-PCR analysis", "assay_type": "functional, organism-based"}, "Candida albicans [14]": {"system": "Candida albicans", "assay": "Antifungal activity against Candida albicans assessed as inhibition of hyphae formation in Spider medium at 18 to 72 ug/ml and measured upto 8 hrs by scanning electron microscopy", "assay_type": "functional, organism-based", "settings": "dose 18-72 µg/ml, DDE = dose-dependent effect"}, "Candida albicans [15]": {"system": "Candida albicans", "assay": "Antifungal activity against Candida albicans assessed as downregulation of RAS1 by RT-PCR analysis", "assay_type": "functional, organism-based"}, "Candida albicans [16]": {"system": "Candida albicans", "assay": "Antifungal activity against Candida albicans assessed as decrease in filamentous hyphae length in Spider medium at 36 to 72 ug/ml by scanning electron microscopy", "assay_type": "functional, organism-based", "settings": "dose 36-72 µg/ml"}, "Candida albicans [17]": {"system": "Candida albicans", "assay": "Antifungal activity against Candida albicans assessed as inhibition of fungal growth at 18 to 72 ug/ml and measured upto 96 hrs by microdilution method", "assay_type": "functional, organism-based", "settings": "dose 18-72 µg/ml, DDE = dose-dependent effect"}, "Candida albicans [18]": {"system": "Candida albicans", "assay": "Antifungal activity against Candida albicans assessed as downregulation of ALS3 by RT-PCR analysis", "assay_type": "functional, organism-based"}, "Candida albicans [19]": {"system": "Candida albicans", "assay": "Antifungal activity against Candida albicans assessed as inhibition of hyphae formation in Spider medium at 18 to 72 ug/ml and measured for 4 to 8 hrs by scanning electron microscopy", "assay_type": "functional, organism-based", "settings": "dose 18-72 µg/ml, time 4-8 hrs, TDE = time-dependent effect"}, "Candida albicans [20]": {"system": "Candida albicans", "assay": "Antifungal activity against Candida albicans assessed as inhibition of fungal growth at 18 to 72 ug/ml and measured 4 to 96 hrs by microdilution method", "assay_type": "functional, organism-based", "settings": "dose 18-72 µg/ml, time 4-96 hrs, TDE = time-dependent effect"}, "Candida albicans [21]": {"system": "Candida albicans", "assay": "Antifungal activity against Candida albicans assessed as downregulation of CYR1 by RT-PCR analysis", "assay_type": "functional, organism-based"}},
  "note": "Active and inactive are the calls of the source. No cut-off for these calls is given here.",
  "data": [
    {"smiles": "O=C(CCn1ccc2ccccc21)NCC/N=C/c1ccc(Br)cc1", "values": [
      {"measurement": "IC50", "setting": "Candida albicans [1]", "value": "> 200", "unit": "µg/mL"}
    ]},
    {"smiles": "O=C(CCn1ccc2ccccc21)NCC/N=C/c1cc(Cl)c(F)cc1F", "values": [
      {"measurement": "IC50", "setting": "Candida albicans [1]", "value": "> 200", "unit": "µg/mL"}
    ]},
    {"smiles": "CCN(CC)c1ccc(S(=O)(=O)NCCNC(=O)CCn2ccc3ccccc32)c(O)c1", "values": [
      {"measurement": "IC50", "setting": "Candida albicans [1]", "value": "> 200", "unit": "µg/mL"}
    ]},
    {"smiles": "O=C(CCn1ccc2ccccc21)NCC/N=C/c1ccc(OCc2ccccc2)cc1O", "values": [
      {"measurement": "IC50", "setting": "Candida albicans [1]", "value": 18, "unit": "µg/mL"}
    ]},
    {"smiles": "O=C(CCn1ccc2ccccc21)NCCNS(=O)(=O)c1ccc(F)c(C(F)(F)F)c1", "values": [
      {"measurement": "IC50", "setting": "Candida albicans [1]", "value": "> 200", "unit": "µg/mL"}
    ]},
    {"smiles": "OC(Cn1cncn1)(Cn1cncn1)c1ccc(F)cc1F", "note": "[FLUCONAZOLE]", "values": [
      {"measurement": "IC50", "setting": "Candida albicans [2]", "value": "> 200", "unit": "µg/mL"},
      {"measurement": "IC50", "setting": "Candida albicans [3]", "value": 10, "unit": "µg/mL"},
      {"measurement": "IC50", "setting": "Candida albicans [4]", "value": "> 200", "unit": "µg/mL"},
      {"measurement": "IC50", "setting": "Candida albicans [1]", "value": "> 200", "unit": "µg/mL"},
      {"measurement": "IC50", "setting": "Candida albicans [5]", "value": 1.3, "unit": "µg/mL"},
      {"measurement": "IC50", "setting": "Candida albicans [6]", "value": 1.2, "unit": "µg/mL"},
      {"measurement": "IC50", "setting": "Candida albicans [7]", "value": "> 200", "unit": "µg/mL"},
      {"measurement": "IC50", "setting": "Candida albicans [8]", "value": "> 200", "unit": "µg/mL"}
    ]},
    {"smiles": "O=C(CCn1ccc2ccccc21)NCCNS(=O)(=O)c1cc(Cl)cc(Br)c1O", "values": [
      {"measurement": "IC50", "setting": "Candida albicans [1]", "value": "> 200", "unit": "µg/mL"}
    ]},
    {"smiles": "O=C(CCn1ccc2ccccc21)NCCNS(=O)(=O)c1cc([N+](=O)[O-])ccc1O", "values": [
      {"measurement": "IC50", "setting": "Candida albicans [1]", "value": "> 200", "unit": "µg/mL"}
    ]},
    {"smiles": "O=C(CCn1ccc2ccccc21)NCC/N=C/c1ccc(Cl)c(C(F)(F)F)c1", "values": [
      {"measurement": "IC50", "setting": "Candida albicans [1]", "value": 24, "unit": "µg/mL"}
    ]},
    {"smiles": "O=C(CCn1ccc2ccccc21)NCCNS(=O)(=O)c1cc(Br)ccc1O", "values": [
      {"measurement": "IC50", "setting": "Candida albicans [1]", "value": "> 200", "unit": "µg/mL"}
    ]},
    {"smiles": "COc1ccc(O)c(/C=N/CCNC(=O)CCn2ccc3ccccc32)c1", "values": [
      {"measurement": "IC50", "setting": "Candida albicans [1]", "value": "> 200", "unit": "µg/mL"}
    ]},
    {"smiles": "O=C(CCn1ccc2ccccc21)NCCNS(=O)(=O)c1cc(Cl)c(F)cc1F", "values": [
      {"measurement": "IC50", "setting": "Candida albicans [1]", "value": "> 200", "unit": "µg/mL"}
    ]},
    {"smiles": "O=C(CCn1ccc2ccccc21)NCCNS(=O)(=O)c1ccc(Br)cc1", "values": [
      {"measurement": "IC50", "setting": "Candida albicans [1]", "value": "> 200", "unit": "µg/mL"}
    ]},
    {"smiles": "O=C(CCn1ccc2ccccc21)NCC/N=C/c1ccc(OC(F)(F)F)cc1", "values": [
      {"measurement": "IC50", "setting": "Candida albicans [1]", "value": 29, "unit": "µg/mL"}
    ]},
    {"smiles": "Cc1ccc(S(=O)(=O)NCCNC(=O)CCn2ccc3ccccc32)cc1", "values": [
      {"measurement": "IC50", "setting": "Candida albicans [1]", "value": "> 200", "unit": "µg/mL"}
    ]},
    {"smiles": "CCN(CC)c1ccc(/C=N/CCNC(=O)CCn2ccc3ccccc32)c(O)c1", "values": [
      {"measurement": "Activity", "setting": "Candida albicans [9]", "value": "Active"},
      {"measurement": "CC50 at 24 h", "setting": "[10]", "value": "> 200", "unit": "µg/mL"},
      {"measurement": "inhibition", "setting": "Candida albicans [11]", "value": "Active"},
      {"measurement": "Activity", "setting": "Candida albicans [12]", "value": "Active"},
      {"measurement": "Activity", "setting": "Candida albicans [13]", "value": "Active"},
      {"measurement": "inhibition", "setting": "Candida albicans [14]", "value": "Dde"},
      {"measurement": "IC50", "setting": "Candida albicans [2]", "value": 39, "unit": "µg/mL"},
      {"measurement": "IC50", "setting": "Candida albicans [3]", "value": 19, "unit": "µg/mL"},
      {"measurement": "IC50", "setting": "Candida albicans [4]", "value": 20, "unit": "µg/mL"},
      {"measurement": "Activity", "setting": "Candida albicans [15]", "value": "Active"},
      {"measurement": "Activity", "setting": "Candida albicans [16]", "value": "Active"},
      {"measurement": "IC50", "setting": "Candida albicans [1]", "value": 21, "unit": "µg/mL"},
      {"measurement": "inhibition", "setting": "Candida albicans [17]", "value": "Dde"},
      {"measurement": "IC50", "setting": "Candida albicans [5]", "value": 22, "unit": "µg/mL"},
      {"measurement": "IC50", "setting": "Candida albicans [6]", "value": 74, "unit": "µg/mL"},
      {"measurement": "Activity", "setting": "Candida albicans [18]", "value": "Active"},
      {"measurement": "inhibition", "setting": "Candida albicans [19]", "value": "Tde"},
      {"measurement": "inhibition", "setting": "Candida albicans [20]", "value": "Tde"},
      {"measurement": "IC50", "setting": "Candida albicans [7]", "value": 75, "unit": "µg/mL"},
      {"measurement": "IC50", "setting": "Candida albicans [8]", "value": 78, "unit": "µg/mL"},
      {"measurement": "Activity", "setting": "Candida albicans [21]", "value": "Active"}
    ]},
    {"smiles": "O=C(CCn1ccc2ccccc21)NCCNS(=O)(=O)c1ccc(OCc2ccccc2)cc1O", "values": [
      {"measurement": "IC50", "setting": "Candida albicans [1]", "value": "> 200", "unit": "µg/mL"}
    ]},
    {"smiles": "O=C(CCn1ccc2ccccc21)NCC/N=C/c1ccc(F)c(C(F)(F)F)c1", "values": [
      {"measurement": "IC50", "setting": "Candida albicans [1]", "value": "> 200", "unit": "µg/mL"}
    ]},
    {"smiles": "COc1cc(O)c(/C=N/CCNC(=O)CCn2ccc3ccccc32)c(OC)c1", "values": [
      {"measurement": "IC50", "setting": "Candida albicans [1]", "value": 86, "unit": "µg/mL"}
    ]},
    {"smiles": "O=C(CCn1ccc2ccccc21)NCCNS(=O)(=O)c1ccc(OC(F)(F)F)cc1", "values": [
      {"measurement": "IC50", "setting": "Candida albicans [1]", "value": "> 200", "unit": "µg/mL"}
    ]}
  ]
}
